Assay results published in patent US20260053811A1, “METHODS OF TREATING HYPERTENSION IN OBESE SUBJECTS” (Mineralys Therapeutics, Inc., priority 2022, published 2026).

Test system: hypertensive subjects
Test: Seated automated office blood pressure (AOBP) in randomized, placebo-controlled, dose-ranging study
Format: in vivo, human
Conditions: Part 1, 50 mg QD
Description: A randomized, double-blinded, placebo-controlled, dose-ranging, multicenter study was conducted to evaluate the effect of orally administered Compound A HBr on blood pressure for the treatment of hypertension in male and female subjects ≥18 years of age.
The study consists of two parts. For enrollment into Part 1 of the study, a subject's value of plasma renin activity (PRA) must be ≤1 ng/mL/h based on morning measurement. If the value of PRA >1 ng/mL/h based on morning measurement, then subjects may be eligible to enter Part 2 of the study.
For Part 1, 163 enrolled subjects ≥18 years of age were randomized into 6 equal treatment groups (1:1:1:1:1:1) to 12.5 mg BID, 25 mg BID, 12.5 mg QD, 50 mg QD, 100 mg QD, or placebo. After a review of interim clinical data, the 2 lowest dose levels (12.5 mg QD and 12.5 mg BID) were stopped for future randomization due to a lack of consistent meaningful reduction of blood pressure, but the patients randomized to that point remained in the study through completion. Thus, after the review of interim clinical data, subjects were randomized into 4 equal treatment groups (1:1:1:1) to 25 mg BID, 50 mg QD, 100 mg QD, or placebo.
For Part 2, 36 enrolled subjects ≥18 years of age were randomized (5:1) to either 100 mg QD Compound A HBr or placebo such that the Compound A HBr treatment group consisted of approximately 30 subjects and the placebo treatment group will consist of approximately 6 subjects.
Subjects orally administered the assigned study drug (Compound A HBr or placebo) according to the assigned dosing regimen for 8 weeks beginning on Study Day 1. All subjects in Part 1 (regardless of dosing group) received BID dosing to preserve the integrity of the blind; active drug is administered as the morning dose for all QD dose groups. Subjects returned to the research facility or were seen by the clinical investigator or approved home health care professional at the end of Study Weeks 1, 2, 3, 4, 5, 6, 7, and 8 (±2 days) for protocol-defined efficacy and safety assessments and procedures, assessment of adverse events (AEs), and confirmation of compliance with study drug usage. Subjects also completed a telephone visit and blood pressure (BP) check at home approximately 3 days post last dose of study drug. Subjects attended up to 14 full clinic visits, including a pre-Screening visit, a Screening/start of Placebo Run-in visit, a second visit during Placebo Run-in, a clinic visit to initiate the ABPM procedure, a Randomization visit, 8 weekly visits during double-blind treatment, and an end-of-study visit scheduled 4 weeks after the last study treatment for final efficacy and safety assessments.
An automated oscillometric sphygmomanometer device was used to measure the subjects' systolic and diastolic blood pressure in office after approximately 5 minutes of rest in the seated position.
The primary endpoint is the change in office-measured (mean of last 2 of 5 unattended measurements using an automated oscillometric sphygmomanometer device after approximately 5 minutes of rest in the seated position) systolic blood pressure (SBP) from baseline to the end of Study Week 8.
Secondary endpoints of this study were: • (a) Change in 24-hour ambulatory blood pressure monitoring (ABPM) parameters (systolic and diastolic) from baseline to the end of Study Week 7. • (b) Change in office-measured SBP from baseline to the end of Study Weeks 1, 2, 3, 4, 5, 6, and 7. • (c) Change in office-measured diastolic blood pressure (DBP) from baseline to the end of Study Weeks 1, 2, 3, 4, 5, 6, 7, and 8. • (d) Proportion of subjects who achieve office-measured BP of ≤130/80 mm Hg by the end of Study Week 8.

Q: With `CC(=O)N[C@H]1CC[C@H](NC(=O)CN2CCN(c3nncc(-c4ccc(C)cc4)n3)CC2)CC1` [Compound A HBr] as the compound, how does the “Mean (SD) Change from Baseline at Week 8 in Automated Office-Measured Systolic Blood Pressure” value (ACEi/ARB Yes) read?
A: −15.75 (17.46) mmHg

Q: And the “Mean (SD) Automated Office-Measured Diastolic Blood Pressure at Wk 8” value (ACEi/ARBs No)?
A: 78.75 (13.72) mmHg

Q: What about the “Mean (SD) Change from Baseline at Week 8 in Automated Office-Measured Diastolic Blood Pressure” value (ACEi/ARBs No) of the same compound?
A: −4.44 (10.67) mmHg

Q: What about the “Mean (SD) Automated Office-Measured Diastolic Blood Pressure at Wk 8” value (ACEi/ARBs Yes) of the same compound?
A: 76.05 (8.09) mmHg

Q: And the “Mean (SD) Change from Baseline at Week 8 in Automated Office-Measured Diastolic Blood Pressure” value (ACEi/ARBs Yes)?
A: −9.50 (8.30) mmHg

Q: What about the “Mean (SD) Automated Office-Measured Diastolic Blood Pressure at Wk 8” value (AHTs 2) of the same compound?
A: 76.40 (10.12) mmHg

Q: What about the “Mean (SD) Automated Office-Measured Systolic Blood Pressure at Wk 8” value (AHTs 2) of the same compound?
A: 129.60 (13.98) mmHg

Q: And the “Mean (SD) Change from Baseline at Week 8 in Automated Office-Measured Diastolic Blood Pressure” value (AHTs 2)?
A: −7.03 (9.50) mmHg

Q: And the “Mean (SD) Change from Baseline at Week 8 in Automated Office-Measured Systolic Blood Pressure” value (AHTs 2)?
A: −10.28 (15.34) mmHg

Q: What about the “Mean (SD) Automated Office-Measured Diastolic Blood Pressure at Wk 8” value (AHTs ≥3) of the same compound?
A: 77.88 (9.58) mmHg

Q: What about the “Mean (SD) Automated Office-Measured Systolic Blood Pressure at Wk 8” value (AHTs ≥3) of the same compound?
A: 126.25 (13.56) mmHg

Q: And the “Mean (SD) Change from Baseline at Week 8 in Automated Office-Measured Diastolic Blood Pressure” value (AHTs ≥3)?
A: −10.63 (8.12) mmHg

Q: What about the “Mean (SD) Change from Baseline at Week 8 in Automated Office-Measured Systolic Blood Pressure” value (AHTs ≥3) of the same compound?
A: −20.44 (20.36) mmHg

Q: And the “Mean (SD) Automated Office-Measured Diastolic Blood Pressure at Wk 8” value (Age 65-79 yr)?
A: 72.54 (8.04) mmHg

Q: And the “Mean (SD) Automated Office-Measured Systolic Blood Pressure at Wk 8” value (Age 65-79 yr)?
A: 127.92 (13.82) mmHg

Q: And the “Mean (SD) Change from Baseline at Week 8 in Automated Office-Measured Diastolic Blood Pressure” value (Age 65-79 yr)?
A: −8.88 (9.23) mmHg

Q: What about the “Mean (SD) Change from Baseline at Week 8 in Automated Office-Measured Systolic Blood Pressure” value (Age 65-79 yr) of the same compound?
A: −15.15 (18.27) mmHg

Q: What about the “Mean (SD) Automated Office-Measured Diastolic Blood Pressure at Wk 8” value (Age <65 yr) of the same compound?
A: 80.53 (9.93) mmHg

Q: What about the “Mean (SD) Automated Office-Measured Systolic Blood Pressure at Wk 8” value (Age <65 yr) of the same compound?
A: 129.27 (14.04) mmHg

Q: And the “Mean (SD) Change from Baseline at Week 8 in Automated Office-Measured Diastolic Blood Pressure” value (Age <65 yr)?
A: −7.33 (9.30) mmHg

Q: And the “Mean (SD) Change from Baseline at Week 8 in Automated Office-Measured Systolic Blood Pressure” value (Age <65 yr)?
A: −11.47 (16.60) mmHg

Q: And the “Mean (SD) Automated Office-Measured Diastolic Blood Pressure at Wk 8” value (BMI 25−30 kg/m^2)?
A: 80.27 (6.29) mmHg

Q: What about the “Mean (SD) Change from Baseline at Week 8 in Automated Office-Measured Diastolic Blood Pressure” value (BMI 25−30 kg/m^2) of the same compound?
A: −4.50 (8.75) mmHg

Q: And the “Mean (SD) Automated Office-Measured Diastolic Blood Pressure at Wk 8” value (BMI <25 kg/m^2)?
A: 61.00 (NE) mmHg

Q: What about the “Mean (SD) Change from Baseline at Week 8 in Automated Office-Measured Diastolic Blood Pressure” value (BMI <25 kg/m^2) of the same compound?
A: −24.50 (NE) mmHg

Q: And the “Mean (SD) Automated Office-Measured Diastolic Blood Pressure at Wk 8” value (BMI >30 kg/m^2)?
A: 76.07 (11.02) mmHg

Q: And the “Mean (SD) Change from Baseline at Week 8 in Automated Office-Measured Diastolic Blood Pressure” value (BMI >30 kg/m^2)?
A: −9.67 (8.59) mmHg

Q: And the “Mean (SD) Automated Office-Measured Systolic Blood Pressure at Wk 8” value (BMI at baseline 25-30 kg/m^2)?
A: 136.64 (14.70) mmHg

Q: And the “Mean (SD) Change from Baseline at Week 8 in Automated Office-Measured Systolic Blood Pressure” value (BMI at baseline 25-30 kg/m^2)?
A: −2.45 (15.21) mmHg

Q: And the “Mean (SD) Automated Office-Measured Systolic Blood Pressure at Wk 8” value (BMI at baseline <25 kg/m^2)?
A: 118.00 (NE) mmHg

Q: What about the “Mean (SD) Change from Baseline at Week 8 in Automated Office-Measured Systolic Blood Pressure” value (BMI at baseline <25 kg/m^2) of the same compound?
A: −38.00 (NE) mmHg

Q: What about the “Mean (SD) Automated Office-Measured Systolic Blood Pressure at Wk 8” value (BMI at baseline >30 kg/m^2) of the same compound?
A: 124.13 (10.98) mmHg

Q: What about the “Mean (SD) Change from Baseline at Week 8 in Automated Office-Measured Systolic Blood Pressure” value (BMI at baseline >30 kg/m^2) of the same compound?
A: −19.27 (15.13) mmHg

Q: What about the “Mean (SD) Automated Office-Measured Diastolic Blood Pressure at Wk 8” value (Race Black or AA) of the same compound?
A: 83.25 (8.88) mmHg

Q: And the “Mean (SD) Automated Office-Measured Systolic Blood Pressure at Wk 8” value (Race Black or AA)?
A: 130.38 (14.12) mmHg

Q: What about the “Mean (SD) Change from Baseline at Week 8 in Automated Office-Measured Diastolic Blood Pressure” value (Race Black or AA) of the same compound?
A: −4.88 (8.84) mmHg

Q: What about the “Mean (SD) Change from Baseline at Week 8 in Automated Office-Measured Systolic Blood Pressure” value (Race Black or AA) of the same compound?
A: −12.31 (18.13) mmHg

Q: And the “Mean (SD) Automated Office-Measured Diastolic Blood Pressure at Wk 8” value (Race Other)?
A: 74.25 (9.14) mmHg

Q: What about the “Mean (SD) Automated Office-Measured Systolic Blood Pressure at Wk 8” value (Race Other) of the same compound?
A: 127.95 (13.83) mmHg

Q: And the “Mean (SD) Change from Baseline at Week 8 in Automated Office-Measured Diastolic Blood Pressure” value (Race Other)?
A: −9.33 (9.15) mmHg

Q: And the “Mean (SD) Change from Baseline at Week 8 in Automated Office-Measured Systolic Blood Pressure” value (Race Other)?
A: −13.53 (17.25) mmHg

Q: And the “Mean (SD) Automated Office-Measured Diastolic Blood Pressure at Wk 8” value (Seated SBP Tertile High)?
A: 73.25 (8.33) mmHg

Q: And the “Mean (SD) Change from Baseline at Week 8 in Automated Office-Measured Diastolic Blood Pressure” value (Seated SBP Tertile High)?
A: −13.94 (7.82) mmHg

Q: What about the “Mean (SD) Automated Office-Measured Diastolic Blood Pressure at Wk 8” value (Seated SBP Tertile Low) of the same compound?
A: 81.08 (9.65) mmHg

Q: What about the “Mean (SD) Change from Baseline at Week 8 in Automated Office-Measured Diastolic Blood Pressure” value (Seated SBP Tertile Low) of the same compound?
A: 2.42 (8.22) mmHg

Q: What about the “Mean (SD) Automated Office-Measured Diastolic Blood Pressure at Wk 8” value (Seated SBP Tertile Middle) of the same compound?
A: 74.00 (10.06) mmHg
